Assay results as given in patent US8173635B2, “Kinase inhibitors” (Vertex Pharmaceuticals Incorporated, priority 2007, dated 2012).
pKi: −log10 of the molar value.

Columns and labels:
Assay type in all cases: biochemical
PKC theta kinase = PKC theta kinase (Homo sapiens, UniProt Q04759); test: PKC theta kinase inhibition, coupled-enzyme NADH absorbance assay (Ki); details: 240 μM ATP, 18 nM PKC theta, 30° C.; read-out: Ki PKC theta
In short: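 Coupled-enzyme kinase assay following NADH absorbance at 340 nm, in 100 mM HEPES pH 7.5, 10 mM MgCl2, 25 mM NaCl, 0.1 mM EDTA, 0.01% Brij. Compound in DMSO preincubated with enzyme 10 min at 30 °C. Ki from initial rates by non-linear regression.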

PKC delta kinase = PKC delta kinase (Homo sapiens, UniProt Q05655); test: PKC delta kinase inhibition, coupled-enzyme NADH absorbance assay (Ki); details: 150 μM ATP, 46 nM PKC delta, 30° C.; read-out: Ki PKC delta
In short: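 Assay buffer was 100 mM HEPES pH 7.5, 10 mM MgCl2, 25 mM NaCl, 0.1 mM EDTA, 0.01% Brij. Enzyme buffer was equilibrated with compound in DMSO for 10 min at 30 °C. Ki values were derived by non-linear regression of initial rate data.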

PKC alpha kinase = PKC alpha kinase (Homo sapiens, UniProt P17252); test: PKC alpha kinase inhibition, coupled-enzyme NADH absorbance assay (Ki); details: 130 μM ATP, 4.5 nM PKC alpha, 30° C.; read-out: Ki PKC alpha

Chain of PKC theta kinase (Q04759 whole entry): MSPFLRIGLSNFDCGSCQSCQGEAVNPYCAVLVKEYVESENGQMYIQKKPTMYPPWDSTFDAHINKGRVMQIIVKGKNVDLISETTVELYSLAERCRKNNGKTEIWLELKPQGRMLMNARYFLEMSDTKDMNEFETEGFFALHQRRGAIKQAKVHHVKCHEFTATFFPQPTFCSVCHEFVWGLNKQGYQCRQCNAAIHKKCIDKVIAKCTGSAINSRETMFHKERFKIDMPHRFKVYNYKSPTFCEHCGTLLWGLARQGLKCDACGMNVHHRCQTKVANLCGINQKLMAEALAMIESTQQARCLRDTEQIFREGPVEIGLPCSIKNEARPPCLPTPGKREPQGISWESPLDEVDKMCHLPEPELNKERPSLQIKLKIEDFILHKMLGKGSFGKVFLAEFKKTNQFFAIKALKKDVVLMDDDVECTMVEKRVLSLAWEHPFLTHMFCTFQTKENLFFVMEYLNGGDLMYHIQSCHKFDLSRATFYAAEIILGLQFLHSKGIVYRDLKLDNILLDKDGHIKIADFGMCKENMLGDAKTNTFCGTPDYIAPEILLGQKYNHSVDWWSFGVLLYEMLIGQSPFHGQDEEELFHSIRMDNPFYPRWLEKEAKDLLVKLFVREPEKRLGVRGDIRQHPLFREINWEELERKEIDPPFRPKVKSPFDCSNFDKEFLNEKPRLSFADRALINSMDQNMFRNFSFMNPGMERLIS
Chain of PKC delta kinase (Q05655 whole entry): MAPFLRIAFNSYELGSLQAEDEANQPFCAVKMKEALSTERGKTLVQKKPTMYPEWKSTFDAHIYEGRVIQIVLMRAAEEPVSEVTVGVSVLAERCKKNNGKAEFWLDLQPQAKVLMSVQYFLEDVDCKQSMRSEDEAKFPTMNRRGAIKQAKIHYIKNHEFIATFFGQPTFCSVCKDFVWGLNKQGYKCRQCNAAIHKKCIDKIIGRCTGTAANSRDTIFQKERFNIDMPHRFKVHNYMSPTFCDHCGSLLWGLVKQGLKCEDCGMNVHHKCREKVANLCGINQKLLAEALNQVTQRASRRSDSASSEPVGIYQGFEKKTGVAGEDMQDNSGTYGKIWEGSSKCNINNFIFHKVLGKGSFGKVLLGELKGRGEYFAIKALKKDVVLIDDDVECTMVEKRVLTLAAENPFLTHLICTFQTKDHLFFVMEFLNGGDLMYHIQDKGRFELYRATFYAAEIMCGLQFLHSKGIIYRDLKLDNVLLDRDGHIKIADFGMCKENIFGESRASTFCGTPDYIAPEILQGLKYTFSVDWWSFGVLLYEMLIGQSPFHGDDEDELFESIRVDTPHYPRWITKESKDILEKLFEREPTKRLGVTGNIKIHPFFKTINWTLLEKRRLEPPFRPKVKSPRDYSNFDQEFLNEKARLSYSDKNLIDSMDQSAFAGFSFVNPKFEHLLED

SMILES	pKi (PKC theta kinase)	pKi (PKC delta kinase)	pKi (PKC alpha kinase)
N#CC1(c2cc(-c3ccnc4[nH]ncc34)cc(C(F)(F)CCN)c2)CC1 [Compound 330]	> 7.30	> 6.30	> 6.30
NCC1(c2cccc(-c3ccnc4[nH]nc(Cl)c34)c2)CCOCC1 [Compound 206]	> 7.30	> 6.30	> 6.30
CC#CCC(C)(CN)c1cc(C)cc(-c2ccnc3[nH]ncc23)c1 (stereo not drawn) [Compound 234]	> 7.30	> 7.30	> 6.30
N#CC1(c2cccc(-c3ccnc4[nH]nc(C(F)(F)F)c34)c2)CC1 [Compound 273]	> 7.30	> 6.30	> 6.30
CCc1n[nH]c2nccc(-c3cc(CCCN)cc(C4(C#N)CC4)c3)c12 [Compound 302]	> 7.30	> 6.30	> 5.55
CCCC(C)(C#N)c1cccc(-c2ccnc3[nH]ncc23)c1 (stereo not drawn) [Compound 69]	> 5.55	< 5.55	> 5.55
N#CC1(c2cccc(-c3ccnc4[nH]ncc34)c2)CCCC1 [Compound 74]	> 6.30	> 5.55	> 5.55
CC(CN)(c1cccc(-c2ccnc3[nH]ncc23)c1)C1CCCC1 (stereo not drawn) [Compound 46]	> 7.30	> 6.30	> 6.30
CC(C)(C#N)c1cc(CCCO)cc(-c2ccnc3[nH]ncc23)c1 [Compound 78]	> 7.30	> 5.55	> 5.55
Cc1cc(-c2ccnc3[nH]ncc23)cc(C2(Cc3ccccc3)CNC(=O)O2)c1 (stereo not drawn) [Compound 327]	> 6.30	< 5.92	> 5.55
CC(C)(C#N)c1cc(Br)cc(-c2ccnc3[nH]ncc23)c1 [Compound 18]	> 7.30	> 5.55	> 5.55
COCC(C)(C#N)c1cccc(-c2ccnc3[nH]ncc23)c1 (stereo not drawn) [Compound 95]	> 6.30	< 5.55	> 5.55
N#CC(c1cccc(-c2ccnc3[nH]ncc23)c1)N1CCNCC1 (stereo not drawn) [Compound 321]	> 6.30	< 5.92	< 5.92
NCC1(c2cccc(-c3ccnc4[nH]ncc34)c2)CCOCC1 [Compound 157]	> 7.30	> 5.55	> 5.55
NCC1(c2cccc(-c3ccnc4[nH]ncc34)c2)CC=C(F)CC1 (stereo not drawn) [Compound 184]	> 7.30	> 6.30	> 6.30
N#CC1(c2cc(-c3ccnc4[nH]ncc34)cc(C(F)(F)CN)c2)CC1 [Compound 122]	> 7.30	> 5.55	> 5.55
CCc1ccc(-c2ccnc3[nH]ncc23)cc1C(C)(C)CN [Compound 132]	> 6.30	> 5.55	> 5.55
CCC(C)(CN)c1cc(-c2ccnc3[nH]ncc23)cc(C(F)(F)F)c1 (stereo not drawn) [Compound 139]	> 7.30	> 6.30	> 6.30
CCC(F)c1cc(-c2ccnc3[nH]ncc23)cc(C(C)(CC)CN)c1 (stereo not drawn) [Compound 158]	> 6.30	< 5.70	> 5.55
OCC1(c2cccc(-c3ccnc4[nH]nc(C(F)(F)F)c34)c2)CC1 [Compound 290]	> 7.30	> 6.30	> 5.55
CCc1cc(-c2ccnc3[nH]ncc23)cc(C(C)(C)CN)c1 [Compound 44]	> 6.30	> 5.55	> 5.55
CC(C)(O)CCc1cc(-c2ccnc3[nH]nc(C(F)(F)F)c23)cc(C2(C#N)CC2)c1 [Compound 316]	> 7.30	< 5.92	< 5.92

SMILES	pKi (PKC theta kinase)	pKi (PKC delta kinase)	pKi (PKC alpha kinase)
CCC(N)c1cccc(-c2ccnc3[nH]nc(C(F)(F)F)c23)c1 (stereo not drawn) [Compound 309]	> 7.30	> 5.55	> 5.55
CC(C#N)(CC1CC1)c1cccc(-c2ccnc3[nH]ncc23)c1 (stereo not drawn) [Compound 80]	> 6.30	< 5.55	> 5.55
CCSc1cc(-c2ccnc3[nH]ncc23)cc(C(C)(C#N)CC)c1 (stereo not drawn) [Compound 102]	> 6.30	< 5.70	> 5.55
CCc1cc(-c2ccnc3[nH]nc(Cl)c23)cc(C2(CN)CCC2)c1 [Compound 211]	> 7.30	> 5.55	> 6.30
CC(C#N)(CC(F)F)c1cccc(-c2ccnc3[nH]ncc23)c1 (stereo not drawn) [Compound 99]	> 6.30	> 5.55	> 5.55
CCCc1cc(-c2ccnc3[nH]ncc23)cc(C2(CCN)CCC2)c1 [Compound 187]	> 5.55	< 5.70	< 5.92
CC[C@](C)(CN)c1cccc(-c2ccnc3[nH]ncc23)c1 [Compound 151]	> 7.30	> 7.30	> 6.30
C=C1CCc2ccc(-c3ccnc4[nH]ncc34)cc21 [Compound 202, 4-(3-Methylene-2,3-dihydro-1H-inden-5-yl)-1H-pyrazolo[3,4-b]pyridine]	< 5.55	< 5.55	< 5.55
CNCC(F)(F)c1cc(-c2ccnc3[nH]ncc23)cc(C2(C#N)CC2)c1 [Compound 123]	> 7.30	> 5.55	> 5.55
N#CC1(c2cccc(-c3ccnc4[nH]nc(Cl)c34)c2)CC1 [Compound 205]	> 7.30	> 7.30	> 6.30
NCc1cccc(-c2ccnc3[nH]nc(C4CC4)c23)c1 [Compound 269]	< 6.15	< 5.92	< 5.92
N#C[C@]1(c2cccc(-c3ccnc4[nH]ncc34)c2)C[C@@H](N)C1 [Compound 249]	> 7.30	> 5.55	> 6.30
N#CC1(c2cccc(-c3ccnc4[nH]nc(Cl)c34)c2)CCC1 [Compound 259]	> 7.30	> 6.30	> 6.30
CCCCNC(CC)c1cccc(-c2ccnc3[nH]ncc23)c1 (stereo not drawn) [Compound 247]	> 6.30	< 5.92	< 5.92
CCC(C)(CN)c1cc(Br)cc(-c2ccnc3[nH]ncc23)c1 (stereo not drawn) [Compound 167]	> 7.30	> 6.30	> 6.30
CCC(C)(CO)c1cc(C)cc(-c2ccnc3[nH]ncc23)c1 (stereo not drawn) [Compound 241]	> 7.30	> 5.55	> 6.30
NCC1(c2cccc(-c3ccnc4[nH]ncc34)c2)CCCCC1 [Compound 177]	> 7.30	> 6.30	> 5.55
NCC1(c2cccc(-c3ccnc4[nH]nc(Cl)c34)c2)CCC1 [Compound 260]	> 7.30	> 7.30	> 6.30
CCC(C)(CN)c1cccc(-c2ccnc3[nH]nc(C)c23)c1 (stereo not drawn) [Compound 212, 2-methyl-2-(3-(3-methyl-1H-pyrazolo[3,4-b]pyridin-4-yl)phenyl)butan-1-amine]	> 7.30	> 7.30	> 7.30
CCC(C)(CN)c1cc(CC(F)(F)F)cc(-c2ccnc3[nH]ncc23)c1 (stereo not drawn) [Compound 163]	> 6.30	< 5.70	< 5.92
CC(C)(CN)c1cccc(-c2ccnc3[nH]ncc23)c1 [Compound 31, 2-(3-(1H-pyrazolo[3,4-b]pyridin-4-yl)phenyl)-2-methylpropan-1-amine]	> 7.30	> 6.30	> 5.55
CCC(CN)c1cccc(-c2ccnc3[nH]nc(C(F)(F)F)c23)c1 (stereo not drawn) [Compound 281]	> 7.30	> 7.30	> 6.30
